The source of these data is patent publication US10280152B2, “Imaging of glycogen synthase kinase 3” (The General Hospital Corporation, priority 2015, dated 2019).

In series [1] the test system is other structurally similar kinases. To be noted: cited from earlier work.
The subject of series [2] is GSK-3. As to conditions: literature radiotracers; SB-216763 in rodents and non-human primates; cited from earlier work.
In series [3] the test system is GSK-3. As to the kind of experiment: PET imaging in rhesus monkeys. It is filed as in vivo. As to conditions: for brain penetration and specific binding (in words): PET imaging in animals / non-human primate brain. The method, then:
To determine the in vivo distribution and pharmacokinetic profile of compound (1) in higher species of nonhuman primates, compound (1) was radiolabelled with carbon-11 and the permeability of compound (1) was evaluated in the living brain using positron emission tomography. [^11C] labelled compound (1) was synthesized in 5% uncorrected radiochemical yield (relative to [^11C]CO2) by reaction of the corresponding phenolic precursor in the presence of tetrabutylammonium hydroxide in DMF with [^11C]CH3I with specific activity >2 Ci/μmol (n=15).
Bolus i.v. administration of [^11C]-labelled compound (1) in rhesus monkeys (5-7 mCi) reached a whole brain peak uptake (2 SUV) with fairly uniform brain distribution followed by a fast clearance (1 SUV at 40 min). […] Liang et al., “Discovery of [^11C]PF-367 for neuroimaging of glycogen synthase kinase 3”, J. Nucl. Med., 2015, 56(Supp. 3), 491.

A short description of series [4]: Determination of Log D7.4 (1-octanol/PBS shake flask, gamma counting). It is filed as physicochemical. As to conditions: 1-octanol / PBS buffer pH 7.4, n=7. How it is done:
The measurement of lipophilicity was carried out using literature procedure. Purified and reformulated [^11C] labelled compound (1) (˜50 μL) was added to a separating funnel containing PBS buffer (pH 7.4) and 1-octanol (pre-saturated with PBS buffer) (˜20 mL each). The octanol layer was collected and dispensed into 8 centrifuge tubes (2 mL each) containing PBS buffer (2 mL each). The tubes were mixed by vortex for 2 min and then centrifuged for 5 min. Approximately 0.5 mL of the octanol layer and 1.0 mL of the aqueous from each centrifuge tube was then transferred to pre-weighed test tubes (16 in total). The tubes were capped and assayed using an automated gamma counter. The tubes were then uncapped and weighed to determine the total volume of the liquid in each. The log D7.4 of [^11C] labelled compound (1) was determined to be 2.14 (n=7).

Series [5] relates to GSK-3. As to the kind of experiment: PET imaging in rat. It is filed as in vivo. As to conditions: rat (n=1), bolus i.v., at 1-2 min.

Molecules are shown by their SMILES.

Take `[11CH3]n1cc(C2=C(c3ccc(Cl)cc3Cl)C(=O)NC2=O)c2ccccc21` [[^11C]SB-216763]: the “selectivity against other structurally similar kinases (in words)” value in series [1] is listed as “not selective”. Moreover, the “brain uptake in vivo (in words)” value in series [2] was “good brain uptake”.

Consider `[11CH3]Oc1ccc(-c2ocnc2C(=O)NCCCn2cncn2)cc1Cl` [compound (2), N-(3-(1H-1,2,4-Triazol-1-yl)propyl)-5-(3-chloro-4-[^11C]methoxyphenyl)oxazole-4-carboxamide], for which the “brain penetration and specific binding (in words)” value in series [3] (listed as 11C-isotopologue of compound (1)) is “high brain permeability and specificity”; in series [3] (listed as [^11C] labelled compound (1)), “confirmed brain penetration and displaceable specific binding”. Further, the “whole brain peak uptake” value in series [3] (rhesus monkeys, bolus i.v., 5-7 mCi, baseline) is on record as 2 SUV. In addition, the “brain uptake at 40 min (clearance)” value in series [3] (rhesus monkeys, bolus i.v., baseline, 40 min) is given as 1 SUV. The peak uptake in series [3] (rhesus monkeys, co-administration with unlabelled compound (1) 0.1 mg/kg) is on record as 3.5 SUV. The “binding at 40 min in all brain regions” value in series [3] (rhesus monkeys, co-administration with unlabelled compound (1) 0.1 mg/kg, 40 min) came out at 0.3 SUV. Besides, the logD (in general, the decadic logarithm of the distribution of all forms, ionised or not, between an organic phase and buffer at a given pH) in series [4] turned out to be 2.14. The maximum uptake result in series [5] is “about 1 SUV”.
